US7709478B2, “Acylated 6,7,8,9-tetrahydro-5H-benzocycloheptenyl amines and their use as pharmaceutical agents” (sanofi-aventis Deutschland GmbH, priority 2001, dated 2010)
Structures can show the parent of a compound that is named as a salt.

Tested on: eNOS promoter
Assay: Activation of eNOS transcription (eNOS promoter-luciferase reporter gene assay)
Type: cell-based, human
Details: 18 h incubation; for EC50: EC50 of transcription induction ratio vs compound concentration, determined graphically, human endothelial cell line stably transfected with eNOS promoter-luciferase construct; for maximal fold induction / TIR(max): maximum transcription induction ratio (luciferase activity with compound / solvent alone), human endothelial cell line with eNOS promoter-luciferase construct; for maximal fold induction: read-out: TIR(max)
Experimental: Measurement of Activation of eNOS Transcription
Activation of eNOS transcription was measured as described in detail in Li et al. “Activation of protein kinase C alpha and/or epsilon enhances transcription of the human endothelial nitric oxide synthase gene”, Mol. Pharmacol. 1998; 53: 630-637.
Briefly, a 3.5 kB long fragment 5′ of the starting codon of the eNOS gene was cloned, sequenced and cloned in firefly luciferase expression plasmids to monitor activation of the eNOS promoter by reporter gene activity. A human endothelial cell line stable transfected and expressing this promoter-reporter construct was used for compound testing. Cells were incubated for 18 h with compounds.
All compounds were dissolved in sterile DMSO. A final concentration of 0.5% DMSO in complete medium was allowed. Induction of reporter gene expression in these cells was measured using a standard luciferase assay system (Promega, Cat. No E150) according to the manufacturer's instructions. Luciferase induction in cells incubated with compounds were compared to those incubated with solvent alone. The ratio of both activities (transcription induction ratio, TIR) was plotted as a function of compound concentration. Typically, TIR values started at low concentrations at a ratio of 1, indicating no compound effect, and extended up to a maximum TIR value TIR(max) which indicates the increase of the eNOS transcription. EC50 values of transcription induction ratios as a function of compound concentration were determined graphically.

Row | SMILES | EC50 | maximal fold induction | TIR(max)
1 | Cc1cc(C)c(C(=O)NC2CCCc3ccccc3C2)c(N)n1 (stereo not shown) [Compound 56, 2-AMINO-4,6-DIMETHYL-N-(6,7,8 9-TETRAHYDRO-5H-BENZOCYCLOHEPTEN-6-YL)-NICOTINAMIDE] | 168 nM |  | 3
2 | CS(=O)(=O)Nc1cccc(C(=O)NC2CCCc3ccccc3C2)c1 (stereo not shown) [Compound 97, 3-METHANESULFONYLAMINO-N-(6,7,8,9-TETRAHYDRO-5H-BENZOCYCLOHEPTEN-6-YL)-BENZAMIDE] | 1000 nM | 2.5 | 
3 | Cc1cc(C(=O)NC2CCCc3ccccc3C2)c(C)n1Cc1ccncc1 (single isomer, unassigned; (+)) [Compound 47, (+)-2,5-DIMETHYL-1-PYRIDIN-4-YLMETHYL-1H-PYRROLE-3-CARBOXYLIC ACID (6,7,8,9-TETRAHYDRO-5H-BENZOCYCLOHEPTEN-6-YL)-AMIDE] | 20 nM | 3.4 | 
4 | Cc1cc(C(=O)N[C@H]2CCCc3ccccc3C2)n(C)n1 [Compound 122, (S)-2,5-DIMETHYL-2H-PYRAZOLE-3-CARBOXYLIC ACID (6,7,8,9-TETRAHYDRO-5H-BENZOCYCLOHEPTEN-6-YL)-AMIDE] | 15 nM | 2.85 | 
5 | Cc1cc(C(=O)NC2CCCc3ccccc3C2)c(C)n1-c1ccccc1 (stereo not shown) [Compound 96, 2,5-DIMETHYL-1-PHENYL-1H-PYRROLE-3-CARBOXYLIC ACID (6,7,8,9-TETRAHYDRO-5H-BENZOCYCLOHEPTEN-6-YL)-AMIDE] | 20 nM | 3 | 
6 | Cc1nc(C)c(C(=O)NC2CCCc3ccccc3C2)s1 (single isomer, unassigned) [Compound 29, 2,4-DIMETHYL-THIAZOLE-5-CARBOXYLIC ACID (6,7,8,9-TETRAHYDRO-5H-BENZOCYCLOHEPTEN-6-YL)-AMIDE] | 9600 nM |  | 3.4
7 | O=C(NC1CCCc2ccccc2C1)c1ccc(N2CCCC2)nc1 (stereo not shown) [Compound 82, 6-PYRROLIDIN-1-YL-N-(6,7,8,9-TETRARYDRO-5H-BENZOCYCLOHEPTEN-6-YL)-NICOTINAMIDE] | 283 nM |  | 3.2
8 | O=C(NC1CCCc2ccccc2C1)c1cnn(-c2ccccc2)c1C(F)(F)F (single isomer, unassigned) [Compound 35, 1-PHENYL-5-TRIFLUOROMETHYL-1H-PYRAZOLE-4-CARBOXYLIC ACID (6,7,8,9-TETRAHYDRO-5H-BENZOCYCLOHEPTEN-6-YL)-AMIDE] | 3300 nM |  | 3.5
9 | Cc1cc(C(=O)NC2CCCc3ccccc3C2)c(C)n1Cc1ccncc1 (single isomer, unassigned; (-)) [Compound 48, (−)-2,5-DIMETHYL-1-PYRIDIN-4-YLMETHYL-1H-PYRROLE-3-CARBOXYLIC ACID (6,7,8,9-TETRAHYDRO-5H-BENZOCYCLOHEPTEN-6-YL)-AMIDE] | 590 nM |  | 3.4
10 | O=C(NC1CCCc2ccccc2C1)c1cnn(-c2ccc(Cl)cc2)c1C(F)(F)F (stereo not shown) [Compound 14, 1-(4-CHLORO-PHENYL)-5-TRIFLUOROMETHYL-1H-PYRAZOLE-4-CARBOXYLIC ACID (6,7,8,9-TETRAHYDRO-5H-BENZOCYCLOHEPTEN-6-YL)-AMIDE] | 1200 nM | 1.7 | 
11 | Cc1cnc(C(=O)N[C@H]2CCCc3ccccc3C2)c(N)n1 [Compound 114, (S)-3-AMINO-5-METHYL-PYRAZINE-2-CARBOXYLIC ACID (6,7,8,9-TETRARYDRO-5H-BENZOCYCLOHEPTEN-6-YL)-AMIDE] | 30 nM |  | 2.9
12 | Cc1ccc(C(=O)N[C@H]2CCCc3ccccc3C2)cc1NS(C)(=O)=O [Compound 119, (S)-3-METHANESULFONYLAMINO-4-METHYL-N-(6,7,8,9-TETRAHYDRO-5H-BENZOCYCLOHEPTEN-6-YL)-BENZAMIDE] | 230 nM | 3 | 

Now from value to molecule, other results behind:

Row | EC50 | SMILES | maximal fold induction | TIR(max)
13 | 2 nM | Nc1nc(Cl)ccc1C(=O)N[C@H]1CCCc2ccccc2C1 [Compound 128, (S)-2-AMINO-6-CHLORO-N-(6,7,8,9-TETRAHYDRO-5H-BENZOCYCLOHEPTEN-6-YL)-NICOTINAMIDE] | 3.1 | 
14 | 779 nM | COc1ccc(C(=O)NC2CCCc3ccccc3C2)c(OC)n1 (stereo not shown) [Compound 15, 2,6-DIMETHOXY-N-(6,7,8,9-TETRAHYDRO-5H-BENZOCYCLOHEPTEN-6-YL)-NICOTINAMIDE] | 3.1 | 
15 | 20 nM | Cc1c(C(=O)NC2CCCc3ccccc3C2)cnn1-c1ccccc1 (stereo not shown) [Compound 30, 5-METHYL-1-PHENYL-1H-PYRAZOLE-4-CARBOXYLIC ACID (6,7,8,9-TETRARYDRO-5H-BENZOCYCLOHEPTEN-6-YL)-AMIDE] |  | 3.5
16 | 250 nM | O=C(NC1CCCc2ccccc2C1)c1nc(Cl)ccc1Cl (stereo not shown) [Compound 141, 3,6-DICHLORO-PYRIDINE-2-CARBOXYLIC ACID (6,7,8,9-TETRAHYDRO-5H-BENZOCYCLOHEPTEN-6-YL)-AMIDE] | 3.2 | 
17 | 1 nM | O=C(NC1CCCc2ccccc2C1)c1ccc(F)cc1 (single isomer, unassigned; (-)) [Compound 1a, (−)-4-Fluoro-N-(6,7,8,9-tetrahydro-5H-benzocyclohepten-6-yl)-benzamide] |  | 3.2
18 | 40 nM | Cc1ccc(C(=O)NC2CCCc3ccccc3C2)c(C)n1 (single isomer, unassigned) [Compound 112, 2,6-DIMETHYL-N-(6,7,8,9-TETRAHYDRO-5H-BENZOCYCLOHEPTEN-6-YL)-NICOTINAMIDE] | 3.1 | 
19 | < 80 nM | O=C(NC1CCCc2ccccc2C1)c1ccc(F)cc1F (stereo not shown) [Compound 6, 2,4-DIFLUORO-N-(6,7,8,9-TETRAHYDRO-5H-BENZOCYCLOHEPTEN-6-YL)-BENZAMIDE] | 3 | 
20 | 256 nM | O=C(NC1CCCc2ccccc2C1)c1ccc(Cl)nc1 (stereo not shown) [Compound 10, 6-CHLORO-N-(6,7,8,9-TETRAHYDRO-5H-BENZOCYCLOHEPTEN-6-YL)-NICOTINAMIDE] | 3 | 
21 | 42 nM | Cc1ccc(C(=O)NC2CCCc3ccccc3C2)cn1 (single isomer, unassigned) [Compound 54, 6-METHYL-N-(6,7,8,9-TETRAHYDRO-5H-BENZOCYCLOHEPTEN-6-YL)-NICOTINAMIDE] | 3.2 | 
22 | 351 nM | O=C(N[C@H]1CCCc2ccccc2C1)c1ccc2nc[nH]c2c1 [Compound 126, (S)-3H-BENZOIMIDAZOLE-5-CARBOXYLIC ACID (6,7,8,9-TETRAHYDRO-5H-BENZOCYCLOHEPTEN-6-YL)-AMIDE] | 2.9 | 
23 | 2000 nM | O=C(NC1CCCc2ccccc2C1)c1ccc(Cl)nc1Cl (stereo not shown) [Compound 70, 2,6-DICHLORO-N-(6,7,8,9-TETRAHYDRO-5H-BENZOCYCLOHEPTEN-6-YL)-NICOTINAMIDE] | 3.1 | 
24 | 31 nM | Nc1ncccc1C(=O)NC1CCCc2ccccc2C1 (stereo not shown) [Compound 25, 2-AMINO-N-(6,7,8,9-TETRAHYDRO-5H-BENZOCYCLOHEPTEN-6-YL)-NICOTINAMIDE HYDROCHLORIDE] | 3.1 | 
25 | 83 nM | O=C(NC1CCCc2ccccc2C1)c1cccc2snnc12 (stereo not shown) [Compound 22, BENZO[1,2,3]THIADIAZOLE-4-CARBOXYLIC ACID-N-(6,7,8,9-TETRAHYDRO-5H-BENZOCYCLOHEPTEN-6-YL)-AMIDE] | 3.1 | 
26 | 8200 nM | N#Cc1ccc(C(=O)NC2CCCc3ccccc3C2)cn1 (stereo not shown) [Compound 21, 6-CYANO-N-(6,7,8,9-TETRAHYDRO-5H-BENZOCYCLOHEPTEN-6-YL)-NICOTINAMIDE] | 2.6 | 
